Laboratory results reported in PubChem BioAssay (NCI).
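Growth conditions: 96-well plates. Treatment: test compound, 48 hours, 5 concentrations. Analysis: linear interpolation between bracketing concentrations; unreached endpoints set to highest concentration. The concentration for 50% growth inhibition is given as GI50. TGI denotes the concentration required for complete inhibition of growth.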

Experiments:
Assay in all cases: inhibition of tumour cell growth, NCI panel, 48 h
SW-620 colon = system: SW-620 colon
SN12C renal = system: SN12C renal
OVCAR-8 ovarian = system: OVCAR-8 ovarian
U251 CNS = system: U251 CNS
HCT-116 colon = system: HCT-116 colon
HT29 colon = system: HT29 colon
NCI-H226 lung = system: NCI-H226 lung
SK-OV-3 ovarian = system: SK-OV-3 ovarian
SNB-75 CNS = system: SNB-75 CNS
TK-10 renal = system: TK-10 renal

Row | Compound | GI50 (SW-620 colon) [µM] | TGI (SW-620 colon) [µM] | GI50 (SN12C renal) [µM] | TGI (SN12C renal) [µM] | GI50 (OVCAR-8 ovarian) [µM] | TGI (OVCAR-8 ovarian) [µM] | GI50 (U251 CNS) [µM] | TGI (U251 CNS) [µM] | GI50 (HCT-116 colon) [µM] | TGI (HCT-116 colon) [µM] | GI50 (HT29 colon) [µM] | TGI (HT29 colon) [µM] | GI50 (NCI-H226 lung) [µM] | TGI (NCI-H226 lung) [µM] | GI50 (SK-OV-3 ovarian) [µM] | TGI (SK-OV-3 ovarian) [µM] | GI50 (SNB-75 CNS) [µM] | TGI (SNB-75 CNS) [µM] | GI50 (TK-10 renal) [µM] | TGI (TK-10 renal) [µM]
1 | COc1cccc(/C=C2\COc3ccc(-c4ccccc4)cc3C2=O)c1 | 2.01 | 4.54 | 2.33 | 7.49 | 2.21 | 6.14 | 1.56 | 3.05 | 1.68 | 3.47 | 1.7 | 4.72 | 2.57 | 6.79 | 5.25 | 35.8 | 1.99 | 4.8 | 2.35 | 5.03
2 | CC(=O)[O][Hg][c]1c(C)c(C)cc(C)c1C | 0.732 | 2.31 | 1.94 | 4.48 | 1.77 | 3.23 | 0.765 | 2.26 | 1.85 | 3.66 | 1.6 | 6.31 | 2.05 | 3.87 | 3.63 | 6.96 | 1.48 | 2.99 | 1.86 | 3.84
3 | COc1ccc(N=N/C(C(=O)C(F)(F)F)=C(\O)c2ccc(Cl)cc2)cc1 | 4.36 | > 100 | 16.6 | > 100 | 10.7 | 70.3 | 4.55 | 27.8 | 6.64 | 26.2 | 4.6 | 17.2 | 21.2 | > 100 | 14.4 | 35.3 | 10.3 | 37.6 | 18.3 | 61.4
4 | CC(=O)O[C@H]1CC[C@@]2(C)C(=CC[C@@H]3C2CC[C@]2(C)Nc4nc5ccccc5cc4CC32)C1 (some centres undefined) |  | 7.2 |  | 20.1 |  | 10.9 |  | 7.58 |  | 3.8 |  | 3.68 |  | 8.25 |  | 8.4 |  | 8.68 |  | 18.1
5 | C=CCc1cc(OC)c2c(c1)C(OC)CC(c1ccc(OC)c(OC)c1)O2 (centres undefined) |  | > 100 |  | > 100 |  | > 100 |  | > 100 |  | > 100 |  | > 100 |  |  |  | > 100 |  | > 100 |  | > 100
6 | CCOC(=O)c1cnc2c(C)cccc2c1Nc1ccc(C(C)=O)cc1 | 92.6 | > 100 | 24.9 | > 100 | 33.8 | > 100 | 63.8 | > 100 | 14.2 | > 100 | 19.2 | > 100 | 7.01 | > 100 | 75.8 | > 100 | 15.4 | 51 | 32.8 | 82.9
7 | O=C(CC(Cl)=C(Cl)Cl)c1cccc(Cl)c1Cl | 88.7 | > 100 | 46.9 | > 100 | > 100 | > 100 | 46.3 | > 100 | 42.6 | > 100 | 75.4 | > 100 | 75.1 | > 100 | > 100 | > 100 |  |  | 28.2 | > 100
8 | Cn1nc(-c2ccccc2)c2c(/C=C/c3ccccc3)onc2c1=O |  |  |  | > 100 |  | > 100 |  | > 100 |  | > 100 |  | > 100 |  | > 100 |  | > 100 |  | 64.5 |  | > 100
9 | CC1=C(Nc2ccc(N3CCN(C)CC3)cc2)C(=O)c2cncnc2C1=O | 2.54 | 8.04 | 2.02 | 4.48 | 2.28 | 6.28 |  |  | 2.48 | 6.13 | 10.2 | 61.8 | 15.2 | 35.7 | 16.7 | 35.3 | 14.7 | 30 | 28.5 | 58.1
10 | Cc1ccc(S(=O)(=O)NC(CN)C(=O)O)cc1 (centres undefined) |  | > 100 |  |  |  | > 100 |  | > 100 |  | > 100 |  | > 100 |  | > 100 |  | > 100 |  | > 100 |  | > 100
11 | CC1(c2ccc(Cl)cc2)C2C(=O)NC(=O)C1C(=O)NC2=O (centres undefined) |  | > 100 |  | > 100 |  | > 100 |  |  |  |  |  | > 100 |  |  |  | > 100 |  | > 100 |  | > 100
12 | COC(=O)CSSCc1ccc([N+](=O)[O-])cc1 |  | 36.8 |  | 34.1 |  | 82.1 |  | 30.8 |  | 59.6 |  | 60.8 |  |  |  | 46.8 |  | 55.2 |  | 55.7
13 | COc1cc2c3c(n(C)c(=O)c2cc1OC)-c1ccc(C#N)cc1C3=O | > 100 | > 100 | > 100 | > 100 | > 100 | > 100 | 84.9 | > 100 | > 100 | > 100 | > 100 | > 100 | > 100 | > 100 | > 100 | > 100 |  |  | > 100 | > 100
14 | C#CCOc1ccc2ncnc(Nc3ccc(NC(=O)C=C)cc3)c2c1 | 6.3 | 33.1 | 44 | > 100 | 45.8 | > 100 | 79.3 | > 100 | 10.9 | 35.9 | 30.6 | > 100 | > 100 | > 100 | > 100 | > 100 |  |  | 2.62 | 9.03
15 | CN(c1ccccc1)c1c(Cl)c(=O)oc2c1ccc1occc12 |  | > 100 |  | > 100 |  | > 100 |  | > 100 |  | > 100 |  | > 100 |  | > 100 |  |  |  | > 100 |  | > 100
